Source: patent US6720331B2, “1-substituted 1,2,3,4-tetrahydro-β-carboline and 3,4-dihydro-β-carboline and analogs as antitumor agents” (National Sun Yat-sen University, priority 2001, dated 2004)

Experiments:
[1] = test system: HL-60 (promyelocytic leukemia); experiment: alamarBlue anti-proliferation assay, Leukemia HL-60; assay type: cell-based, human; settings: for Percent Growth (Mean ± SEM, n = 2): 72 hour
Experimental: (§1) The growth effects of compound 29 was tested on 8 different human tumour cell lines. Changes in cell proliferation based on the ability of viable cells to cause alamar Blue to change from its oxidized (non-fluorescent, blue) to a reduced (fluorescent, red) form were evaluated. With the results obtained from the alamarBlue reaction, cell proliferation was quantified and metabolic activity of viable cells examined. Test compound, (29), was tested for its effect on the proliferation of 8 different human tumor cell lines at five final assay concentrations from 100 to 0.01 μM through serial 10-fold dilutions, respectively.
(§2) Compound 29 was dissolved in 100% ethanol and then diluted with Phosphate Buffer Saline (PBS, pH=7.4) to obtain initial working solutions of 10000, 1000, 100, 10 and 1 μM in 40% ethanol. In testing, 100-fold dilution was made in culture media to get final assay concentrations of 100, 10, 1, 0.1 and 0.01 μM in 0.4% of ethanol.
(§3) Aliquots of 100 μl of cell suspension (about 2.5-5×10^3/well) were placed in 96well microtiter plates in an atmosphere of 5% CO2 at 37° C. After 24 hours, 100 μl of growth medium, 2 μL of test solution or vehicle (40% DMSO), was added respectively per well in duplicate for an additional 72 hour incubation. Thus, the final concentration of DMSO was 0.4%. The test compound was evaluated at concentrations of 100, 10, 1, 0.1 and 0.01 μM. At the end of the incubation, 20 μL of alamarBlue 75% reagent was added to each well for another 6-hour incubation before detection of cell viability by fluorescent intensity. Fluorescent intensity was measured using a Spectrafluor Plus plate reader with excitation at 530 nm and emission at 590 nm.
(§4) PG(%)=100×(Mean Ftest−Mean Ftime0)/(Mean Fctrl−Mean Ftime0).
(§5) PG(%)=100×(Mean Ftest−Mean Ftime0)/(Mean Ftime0−Mean Fblank)
(§6) A decrease of 50% or more (≧50%) in fluorescent intensity relative to vehicle-treated control indicated significant cytostatic or cytotoxic activity, and a semi-quantitative IC50, TGI and LC50 were then determined by nonlinear regression using GraphPad Prism (GraphPad Software, U.S.A.).
(§7) IC50 (50% Inhibition Concentration): Test Compound concentration at which the increase from time0 in the number or mass of treated cells was only 50% as much as the corresponding increase in the vehicle-control at the end of experiment.
(§8) TGI (Total Growth Inhibition): Test compound concentration at which the number or mass of treated cells at the end of the experiment was equal to that at time0.
(§9) LC50 (50% Lethal Concentration): Test compound concentration at which the number of mass of treated cells at the end of the experiment was half that at time0.

PC-6 (lung carcinoma) = experiment: alamarBlue anti-proliferation assay, Lung PC-6; assay type: cell-based, human; settings: for Percent Growth (Mean ± SEM, n = 2): 72 hour
Experimental: as §1, §2, §3, §4, §5, §6, §7, §8, §9

[2] = test system: HT-29 (human colon adenocarcinoma); experiment: Growth inhibition of tumor cell line HT-29 (Table 1); assay type: cell-based; settings: 6 day drug exposure; columns A/B = scaffold type
[3] = test system: A-549 (human lung adenocarcinoma); experiment: Growth inhibition of tumor cell line A-549 (Table 1); assay type: cell-based; settings: 6 day drug exposure; columns A/B = scaffold type
[4] = test system: PC-3 (prostate adenocarcinoma); experiment: alamarBlue anti-proliferation assay, Prostate PC-3; assay type: cell-based, human; settings: for Percent Growth (Mean ± SEM, n = 2): 72 hour
Experimental: as §1, §2, §3, §4, §5, §6, §7, §8, §9

[5] = test system: MCF-7 (breast adenocarcinoma); experiment: alamarBlue anti-proliferation assay, Breast MCF-7; assay type: cell-based, human; settings: for Percent Growth (Mean ± SEM, n = 2): 72 hour
Experimental: as §1, §2, §3, §4, §5, §6, §7, §8, §9

[6] = test system: HT-29 (colon adenocarcinoma); experiment: alamarBlue anti-proliferation assay, Colon HT-29; assay type: cell-based, human; settings: for Percent Growth (Mean ± SEM, n = 2): 72 hour
Experimental: as §1, §2, §3, §4, §5, §6, §7, §8, §9

[7] = test system: T47D (breast ductal carcinoma); experiment: alamarBlue anti-proliferation assay, Breast T47D; assay type: cell-based, human; settings: 72 hour
Experimental: as §1, §2, §3, §4, §5, §6, §7, §8, §9

[8] = test system: HepG2 (hepatoblastoma, liver); experiment: alamarBlue anti-proliferation assay, Liver HepG2; assay type: cell-based, human; settings: for Percent Growth (Mean ± SEM, n = 2): 72 hour
Experimental: as §1, §2, §3, §4, §5, §6, §7, §8, §9

[9] = test system: KB-16 (human nasopharyngeal carcinoma); experiment: Growth inhibition of tumor cell line KB-16 (Table 1); assay type: cell-based; settings: 3 day drug exposure; columns A/B = scaffold type
[10] = test system: U-937 (histiocytic lymphoma); experiment: alamarBlue anti-proliferation assay, Lymphoma U-937; assay type: cell-based, human; settings: for Percent Growth (Mean ± SEM, n = 2): 72 hour
Experimental: as §1, §2, §3, §4, §5, §6, §7, §8, §9

P-388 (murine leukemia) = experiment: Growth inhibition of tumor cell line P-388 (Table 1); assay type: cell-based; settings: 3 day drug exposure; columns A/B = scaffold type

Structure (SMILES): CCn1c2ccccc2c2cc(C3=NCCc4c3[nH]c3ccccc43)ccc21 [Compound 29, 1-(9′-Ethyl-3′-carbazole)-3,4-dihydro-β-carboline]
- Percent Growth (Mean ± SEM, n = 2) ([1]; HL-60, 0.01 μM): 99 ± 2%
- Percent Growth (Mean ± SEM, n = 2) ([1]; HL-60, 0.1 μM): 90 ± 6%
- Percent Growth (Mean ± SEM, n = 2) ([1]; HL-60, 1 μM): 73 ± 5%
- Percent Growth (Mean ± SEM, n = 2) ([1]; HL-60, 10 μM): 9 ± 3%
- Percent Growth (Mean ± SEM, n = 2) ([1]; HL-60, 100 μM): −100 ± 2%
- Estimated TGI (Total Growth Inhibition) ([1]; HL-60, 72 hour, semi-quantitative): 8.3 µM
- IC50 ([1]; HL-60, 72 hour, semi-quantitative, read-out: Estimated IC50 (50% Inhibition Concentration)): 3.2 µM
- LC50 (50% lethal concentration) ([1]; HL-60, 72 hour, semi-quantitative, read-out: Estimated cIC50 (footnote c: LC50, 50% Lethal Concentration)): 22 µM
- Percent Growth (Mean ± SEM, n = 2) (PC-6 (lung carcinoma); PC-6, 0.01 μM): 101 ± 1%
- Percent Growth (Mean ± SEM, n = 2) (PC-6 (lung carcinoma); PC-6, 0.1 μM): 97 ± 5%
- Percent Growth (Mean ± SEM, n = 2) (PC-6 (lung carcinoma); PC-6, 1 μM): 95 ± 5%
- Percent Growth (Mean ± SEM, n = 2) (PC-6 (lung carcinoma); PC-6, 10 μM): 24 ± 2%
- Percent Growth (Mean ± SEM, n = 2) (PC-6 (lung carcinoma); PC-6, 100 μM): −79 ± 11%
- Estimated TGI (Total Growth Inhibition) (PC-6 (lung carcinoma); PC-6, 72 hour, semi-quantitative): 12.5 µM
- IC50 (PC-6 (lung carcinoma); PC-6, 72 hour, semi-quantitative, read-out: Estimated IC50 (50% Inhibition Concentration)): 5 µM
- LC50 (50% lethal concentration) (PC-6 (lung carcinoma); PC-6, 72 hour, semi-quantitative, read-out: Estimated cIC50 (footnote c: LC50, 50% Lethal Concentration)): 32.5 µM
- IC50, concentration inhibiting 50% of the growth of HT-29 [2]: <1 ng/mL
- IC50, concentration inhibiting 50% of the growth of A-549 [3]: <1 ng/mL
- Percent Growth (Mean ± SEM, n = 2) ([4]; PC-3, 0.01 μM): 100 ± 1%
- Percent Growth (Mean ± SEM, n = 2) ([4]; PC-3, 0.1 μM): 94 ± 3%
- Percent Growth (Mean ± SEM, n = 2) ([4]; PC-3, 1 μM): 82 ± 4%
- Percent Growth (Mean ± SEM, n = 2) ([4]; PC-3, 10 μM): −17 ± 9%
- Percent Growth (Mean ± SEM, n = 2) ([4]; PC-3, 100 μM): −93 ± 1%
- Estimated TGI (Total Growth Inhibition) ([4]; PC-3, 72 hour, semi-quantitative): 6.2 µM
- IC50 ([4]; PC-3, 72 hour, semi-quantitative, read-out: Estimated IC50 (50% Inhibition Concentration)): 2500 nM
- LC50 (50% lethal concentration) ([4]; PC-3, 72 hour, semi-quantitative, read-out: Estimated cIC50 (footnote c: LC50, 50% Lethal Concentration)): 15 µM
- Percent Growth (Mean ± SEM, n = 2) ([5]; MCF-7, 0.01 μM): 97 ± 1%
- Percent Growth (Mean ± SEM, n = 2) ([5]; MCF-7, 0.1 μM): 94 ± 7%
- Percent Growth (Mean ± SEM, n = 2) ([5]; MCF-7, 1 μM): 85 ± 8%
- Percent Growth (Mean ± SEM, n = 2) ([5]; MCF-7, 10 μM): −48 ± 11%
- Percent Growth (Mean ± SEM, n = 2) ([5]; MCF-7, 100 μM): −100 ± 0%
- Estimated TGI (Total Growth Inhibition) ([5]; MCF-7, 72 hour, semi-quantitative): 4.2 µM
- IC50 ([5]; MCF-7, 72 hour, semi-quantitative, read-out: Estimated IC50 (50% Inhibition Concentration)): 2000 nM
- LC50 (50% lethal concentration) ([5]; MCF-7, 72 hour, semi-quantitative, read-out: Estimated cIC50 (footnote c: LC50, 50% Lethal Concentration)): 8.3 µM
- Percent Growth (Mean ± SEM, n = 2) ([6]; HT-29, 0.01 μM): 97 ± 4%
- Percent Growth (Mean ± SEM, n = 2) ([6]; HT-29, 0.1 μM): 101 ± 8%
- Percent Growth (Mean ± SEM, n = 2) ([6]; HT-29, 1 μM): 85 ± 3%
- Percent Growth (Mean ± SEM, n = 2) ([6]; HT-29, 10 μM): −30 ± 15%
- Percent Growth (Mean ± SEM, n = 2) ([6]; HT-29, 100 μM): −94 ± 3%
- Estimated TGI (Total Growth Inhibition) ([6]; HT-29, 72 hour, semi-quantitative): 5.2 µM
- IC50 ([6]; HT-29, 72 hour, semi-quantitative, read-out: Estimated IC50 (50% Inhibition Concentration)): 2300 nM
- LC50 (50% lethal concentration) ([6]; HT-29, 72 hour, semi-quantitative, read-out: Estimated cIC50 (footnote c: LC50, 50% Lethal Concentration)): 11.7 µM
- Percent Growth (Mean ± SEM, n = 2) ([7]; 0.01 μM): 92 ± 2%
- Percent Growth (Mean ± SEM, n = 2) ([7]; 0.1 μM): 88 ± 6%
- Percent Growth (Mean ± SEM, n = 2) ([7]; 1 μM): 89 ± 3%
- Percent Growth (Mean ± SEM, n = 2) ([7]; 10 μM): 25 ± 3%
- Percent Growth (Mean ± SEM, n = 2) ([7]; 100 μM): −100 ± 4%
- Estimated TGI (Total Growth Inhibition) ([7]; semi-quantitative): 10.8 µM
- IC50 ([7]; semi-quantitative, read-out: Estimated IC50 (50% Inhibition Concentration)): 6 µM
- LC50 (50% lethal concentration) ([7]; semi-quantitative, read-out: Estimated cIC50 (footnote c: LC50, 50% Lethal Concentration)): 19.2 µM
- Percent Growth (Mean ± SEM, n = 2) ([8]; HepG2, 0.01 μM): 106 ± 2%
- Percent Growth (Mean ± SEM, n = 2) ([8]; HepG2, 0.1 μM): 96 ± 11%
- Percent Growth (Mean ± SEM, n = 2) ([8]; HepG2, 1 μM): 81 ± 4%
- Percent Growth (Mean ± SEM, n = 2) ([8]; HepG2, 10 μM): −27 ± 7%
- Percent Growth (Mean ± SEM, n = 2) ([8]; HepG2, 100 μM): −100 ± 3%
- Estimated TGI (Total Growth Inhibition) ([8]; HepG2, 72 hour, semi-quantitative): 5.2 µM
- IC50 ([8]; HepG2, 72 hour, semi-quantitative, read-out: Estimated IC50 (50% Inhibition Concentration)): 2200 nM
- LC50 (50% lethal concentration) ([8]; HepG2, 72 hour, semi-quantitative, read-out: Estimated cIC50 (footnote c: LC50, 50% Lethal Concentration)): 12.5 µM
- IC50, concentration inhibiting 50% of the growth of KB-16 [9]: <1 ng/mL
- Percent Growth (Mean ± SEM, n = 2) ([10]; U-937, 0.01 μM): 103 ± 3%
- Percent Growth (Mean ± SEM, n = 2) ([10]; U-937, 0.1 μM): 97 ± 6%
- Percent Growth (Mean ± SEM, n = 2) ([10]; U-937, 1 μM): 90 ± 2%
- Percent Growth (Mean ± SEM, n = 2) ([10]; U-937, 10 μM): −3 ± 4%
- Percent Growth (Mean ± SEM, n = 2) ([10]; U-937, 100 μM): −93 ± 0%
- Estimated TGI (Total Growth Inhibition) ([10]; U-937, 72 hour, semi-quantitative): 7.9 µM
- IC50 ([10]; U-937, 72 hour, semi-quantitative, read-out: Estimated IC50 (50% Inhibition Concentration)): 3.5 µM
- LC50 (50% lethal concentration) ([10]; U-937, 72 hour, semi-quantitative, read-out: Estimated cIC50 (footnote c: LC50, 50% Lethal Concentration)): 18.3 µM
- IC50, concentration inhibiting 50% of the growth of P-388 (P-388 (murine leukemia)): < 1 ng/mL
